Assay results published in patent publication US7919481B2, “Inositol pyrophosphates, and methods of use thereof” (NormOxys, Inc., priority 2002, dated 2011).
Read-outs that look alike come from different tables or passages of the source.

Key:
[1] = 1-octanol/water partition coefficient Kow; format: physicochemical; settings: after equilibration at 30 mM
Method: Partition coefficients relate to the distribution of a solute between two immiscible liquid phases and are defined as the ratios of concentrations (or molar fraction) of the distributed solute.
The partition coefficients for our compounds, Kow=[ITPP]1-octanol/[ITPP]water, were measured after equilibration at a concentration of 30 mM, close to the typical concentration employed for biological evaluations.

whole blood = assay: In vitro incubation of whole blood of three species, summary statements; format: cell-based, human, mouse and pig; settings: whole blood of human, mouse and pig, 60 mM
Method: (§1) As usual, pH's for the compound-solutions were adjusted to ˜7.0, osmolarities for both solutions were determined (325-373 mOsM) prior to effectors, and whole blood volumes at 1:1 ratios were incubated.

pig whole blood = assay: In vitro P50 in whole blood after incubation with effector; format: cell-based; settings: effector 60 mM
Method: as §1

human whole blood = assay: as above; format: cell-based; settings: effector 60 mM
Method: as §1

mouse whole blood = assay: as above; format: cell-based; settings: effector 60 mM
Method: as §1

circulating RBC = assay: P50 shift of circulating RBC after (intraperitoneal) injection in mice; settings: maximum; for shift in the Hb-O2 dissociation curve: IP injection
stripped hemoglobin = stripped hemoglobin (Homo sapiens, UniProt P68871); settings: cited from earlier work
porcine whole blood = assay: In vitro P50 of porcine whole blood with effector (iso-osmolar); format: cell-based, pig; settings: for P50 mm Hg: control 33.5
Method: (§2) Two further effectors, kf133 and kf137, were tested in vitro for P50 shifts with porcine hemoglobin and whole blood. The compounds were well soluble. As usual, pH was adjusted to ˜7.0 and effector solution (2.5 mM) and hemoglobin (2.5 mM) were mixed at a 1:1 ratio. Whole blood and the effector solution were mixed at iso-osmolarity at pH=7. P50 values were measured as described in the previous experiments.

[2] = Solubility of effector solutions; format: physicochemical; settings: pH ~7.0
Method: as §2

[3] = Toxicity, general statements on the biological experiments; format: in vivo; settings: general statement
porcine hemoglobin = porcine hemoglobin (Sus scrofa, UniProt P02067); assay: In vitro P50 of porcine free hemoglobin with effector; format: biochemical, pig; settings: porcine free hemoglobin 2.5 mM, effector 2.5 mM, 1:1; for P50 mm Hg: control 20.4, 19.9
Method: as §2

C57BL/6 mice = assay: Tolerability of intraperitoneal injection in mice; format: in vivo; settings: concentration of (up to) 120 mM
baker's yeast = format: in vitro ADME; settings: pH 4.6
Method: ITPP was dissolved in a buffer solution of a pH 4.6 and heated in the presence of baker's yeast for 12 h at 45° C. Non selective hydrolysis of approximately 25% occurred.

[4] = Chemical hydrolysis of IHP-pyrophosphate at alkaline pH (31P-NMR); format: physicochemical
Method: Experiments designed to test IHP-pyrophosphate's resistance to chemical hydrolysis were conducted. ITPP N,N-dimethyl-cyclohexylammonium salt solutions were adjusted at pH 8.66, 10.20, 12.05 and 13.30. In order to avoid any damage to the NMR tubes due to the highly alkaline solutions, all samples were checked using ^31P-NMR at different time intervals against an external Ph3PO/DMSO solution. This method also avoided concentrating the samples and redissolving them in a deuterated solvent, which may have led to changes in the results. […] Observing this stability, we exposed the pH=13.30 sample to heat at 60° C. for 6 h. […] After 22 h at the same temperature, hydrolysis was only 19%. Facing this extreme stability to chemical hydrolysis we concentrated to dryness both solutions of pH 10.20 and 13.30 and dissolved them in D2O.

[5] = porcine whole blood, iso-osmolarity, pH=7

Sequence of porcine hemoglobin (P01965 whole entry partner): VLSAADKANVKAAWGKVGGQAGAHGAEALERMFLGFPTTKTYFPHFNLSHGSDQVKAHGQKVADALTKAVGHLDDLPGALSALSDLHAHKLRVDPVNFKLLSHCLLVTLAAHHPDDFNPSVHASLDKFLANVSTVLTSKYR
Sequence of porcine hemoglobin (P02067 2-147 limits assumed): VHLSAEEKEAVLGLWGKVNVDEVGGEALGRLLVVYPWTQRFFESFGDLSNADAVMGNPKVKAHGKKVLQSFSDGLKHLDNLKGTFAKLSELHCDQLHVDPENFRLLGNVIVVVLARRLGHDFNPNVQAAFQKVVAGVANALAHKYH
Sequence of stripped hemoglobin (P69905 2-142 partner limits assumed): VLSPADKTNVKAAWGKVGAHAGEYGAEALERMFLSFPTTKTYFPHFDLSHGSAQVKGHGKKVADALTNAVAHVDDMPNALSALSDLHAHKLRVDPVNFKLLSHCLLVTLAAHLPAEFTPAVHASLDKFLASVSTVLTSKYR
Sequence of stripped hemoglobin (P68871 2-147 limits assumed): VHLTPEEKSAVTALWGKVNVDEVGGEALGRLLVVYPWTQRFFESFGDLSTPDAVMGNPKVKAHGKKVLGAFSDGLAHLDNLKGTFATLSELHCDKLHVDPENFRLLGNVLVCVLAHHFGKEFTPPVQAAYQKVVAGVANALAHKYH

## NC1CCCCCC1.NC1CCCCCC1.NC1CCCCCC1.NC1CCCCCC1.NC1CCCCCC1.NC1CCCCCC1.O=P1(O)OC2C3OP(=O)(O)OP(=O)(O)OC3C3OP(=O)(O)OP(=O)(O)OC3C2OP(=O)(O)O1 (stereo not shown) [cycloheptylammonium ITPP salt]
[1]
  Kow=[ITPP]1-octanol/[ITPP]water: 0.0121

## IHP Cholesteryoxy Carbonyl Hepta N,N-Dimethyl Cyclohexyl Ammonium Salt [kf96]
Whole blood
  right shift in the Hb-O2 dissociation curve, all blood samples: 27%
Pig whole blood; 1:1
  P50 Increase %: 27%
Pig whole blood; 1:1, control 32.2
  P50 mm Hg: 41.1 mm Hg
Human whole blood; 1:1
  P50 Increase %: 27%
Human whole blood; 1:1, control 22.1
  P50 mm Hg: 28 mm Hg
Mouse whole blood; 1:1
  P50 Increase %: 20%
Mouse whole blood; 1:1, control 36.7
  P50 mm Hg: 43.9 mm Hg
Circulating RBC; 30 mM
  shift in the Hb-O2 dissociation curve: up to 17%
Circulating RBC; 60 mM
  shift in the Hb-O2 dissociation curve: up to 24%

## IHP Cholesteryoxy Carbonyl Hepta N,N-Dimethyl Cyclohexyl Ammonium Salt [kf16.4]
Circulating RBC; ip, 6 animals
  right shift in the P50: up to 18%

## O=C(O)[C@@H](COP(=O)(O)O)OP(=O)(O)O [2,3-Diphosphoglycerate, 2,3-diphosph-D-glyceric acid]
Stripped hemoglobin; pH 7.4, 25° C.
  O2 half-saturation pressure P(O2)(½) of stripped hemoglobin: 12.0 mm Hg
Stripped hemoglobin; pH 7.4, 37° C.
  O2 half-saturation pressure P(O2)(½) of stripped hemoglobin: 23.7 mm Hg

## NC1CCCCCCC1.NC1CCCCCCC1.NC1CCCCCCC1.NC1CCCCCCC1.NC1CCCCCCC1.NC1CCCCCCC1.O=P1(O)OP(=O)(O)O[C@H]2[C@H](O1)[C@@H]1OP(=O)(O)OP(=O)(O)O[C@@H]1[C@H]1OP(=O)(O)OP(=O)(O)O[C@H]21 [cyclooctylammonium ITPP salt]
[1]
  Kow=[ITPP]1-octanol/[ITPP]water: 0.462

## IHP monopyrophosphate hexasodium salt [kf133]
Porcine whole blood; [5]
  P50 Increase %: 14.5%
  P50 mm Hg: 38.4 mm Hg
[2]
  solubility: well soluble
[3]
  toxicity / tolerability: non-toxic
Porcine hemoglobin
  P50 Increase %: 143%
  P50 mm Hg: 48.5 mm Hg
C57BL/6 mice
  tolerability in mice: well tolerated

## Hexanoy-IHP NN-DMCHA salt [kf137]
Porcine whole blood; porcine whole blood in vitro
  lysis of the RBC: Noticeable lysis
Porcine whole blood; [5]
  P50 mm Hg: 51.5 mm Hg
[2]
  solubility: well soluble
Porcine hemoglobin
  P50 Increase %: 120%
  P50 mm Hg: 45.1 mm Hg
C57BL/6 mice
  tolerability in mice: well tolerated

## O=P1(O)OC2C3OP(=O)(O)OP(=O)(O)OC3C3OP(=O)(O)OP(=O)(O)OC3C2OP(=O)(O)O1 (stereo not shown) [ITPP, inositol tripyrophosphate]
baker's yeast
  non selective enzymatic hydrolysis: approximately 25%

## N,N-Dimethyl cyclohexyl ammonium Salt of Myo-inositol 1,6:2,3:4,5-Tripyrophosphate
[4]; pH 8.66, 10.20, 12.05, after 3 days
  hydrolysis (changes in 31P-NMR): No changes were observed
[4]; pH 10.20, redissolved in D2O
  change after concentration to dryness: remained unchanged
[4]; pH=13.30, 60° C. for 6 h
  hydrolysis: 13%
[4]; pH=13.30, 60° C., after 22 h
  hydrolysis: 19%
[4]; pH=13.3, after 3 days
  hydrolysis: 7%
[4]; pH=13.30, redissolved in D2O
  change after concentration to dryness: completely converted to the IHP open form sodium salt
